Test results reported in US20230146455A1, “TREATMENT OF INFLAMMATORY DISEASES WITH PEPTIDES AND PHARMACEUTICAL COMPOSITIONS” (Yuyu Pharma, Inc., priority 2020, published 2023).
Values joined by “and” are separate entries in the source; they are usually repeats but may differ in a detail not shown here. Identical values can stand only once. Where a SMILES comes first, the peptide text is derived from it. [ ]: non-standard residue; d: D form. Hyp = O=C(O)[C@@H]1C[C@@H](O)CN1

Tests used:
TNF-alpha = test: Example 9 Luminex, LPS hPBMCs: TNF-alpha; assay type: cell-based, human; details: PBMC + test article 100 uM, no LPS; individual replicates (1st, 2nd)
Description: (§1) Treatment Human PBMCs were pretreated with YY-101, YDE-011 and YDE-043 or reference compound; Xiidra® at various concentration (ranging from 1 nM to 100 uM) for 2 h before stimulation. An equal volume of 0.5% DMSO was used as a vehicle control. Then, the cells were treated with LPS at 5 ug/ml. The supernatants from treated cells were harvested at 24 h and placed in a 96 well for Luminex cytokine & chemokine profiling using a Luminex 200 multiplex assay (Luminex; R&D system, USA).
(§2) The main study arm with triplicate wells per group in a 24-well plate: • 1. Blank • 2. PBMC: 0.5% DMSO • 3. PBMC+LPS (5 ug/ml) • 4. PBMC+YY-101 100 uM • 5. PBMC+YY-101 10 uM • 6. PBMC+YY-101 1 uM • 7. PBMC+YY-101 0.1 uM • 8. PBMC+YY-101 0.01 uM • 9. PBMC+LPS (5 ug/ml)+Xiidra®100 uM • 10. PBMC+LPS (5 ug/ml)+Xiidra® 10 uM • 11. PBMC+LPS (5 ug/ml)+Xiidra® 1 uM • 12. PBMC+LPS (5 ug/ml)+Xiidra®0.1 uM • 13. PBMC+LPS (5 ug/ml)+Xiidra®0.01 uM • 14. PBMC+LPS (5 ug/ml)+Xiidra®0.001 uM • 15. PBMC+LPS (5 ug/ml)+YY-101 100 uM • 16. PBMC+LPS (5 ug/ml)+YY-101 10 uM • 17. PBMC+LPS (5 ug/ml)+YY-101 1 uM • 18. PBMC+LPS (5 ug/ml)+YY-101 0.1 uM • 19. PBMC+LPS (5 ug/ml)+YY-101 0.01 uM • 20. PBMC+LPS (5 ug/ml)+YY-101 0.001 uM • 21. PBMC+LPS (5 ug/ml)+YDE-011 100 uM • 22. PBMC+LPS (5 ug/ml)+YDE-011 10 uM • 23. PBMC+LPS (5 ug/ml)+YDE-011 1 uM • 24. PBMC+LPS (5 ug/ml)+YDE-011 0.1 uM • 25. PBMC+LPS (5 ug/ml)+YDE-011 0.01 uM • 26. PBMC+LPS (5 ug/ml)+YDE-011 0.001 uM • 27. PBMC+LPS (5 ug/ml)+YDE-043 100 uM • 28. PBMC+LPS (5 ug/ml)+YDE-043 10 uM • 29. PBMC+LPS (5 ug/ml)+YDE-043 1 uM • 30. PBMC+LPS (5 ug/ml)+YDE-043 0.1 uM • 31. PBMC+LPS (5 ug/ml)+YDE-043 0.01 uM • 32. PBMC+LPS (5 ug/ml)+YDE-043 0.001 uM
(§3) Multiplex assay was used to measure 30 cytokines and chemokines. The 1:2, 1:10 and 1:200 diluted cell supernatant and serial dilution of the standard were dispensed into a 96 well plate at 50 ul/well. Then, the pre-mixed cocktail of antibody-coated magnetic beads was dispensed at 50 ul/well and incubated at room temperature for 2 h in a horizontal orbital microplate shaker at 800±500 rpm. The beads were washed using a magnetic device to prevent loss. The biotin-antibody was dispensed in 50 ul of each well and incubated at room temperature for 1 h in a shaker at 800±500 rpm. After washing, streptavidin-PE was added at 50 ul/well and incubated at room temperature for 30 min in a shaker under the same conditions. Finally, after washing, wash buffer (100 ul/well) was added to the plate and incubated in a shaker for 2 min. The Luminex™ 200 setting were set according to the manufacturer's protocol. The data was calculated with a standard five-parameter logistic nonlinear regression analysis of the data (xPonent software 4.2, USA). The levels of cytokine/chemokine are normalized to the live cell counts (1×10^5 cells/mL) and presented as concentrations per mL (pg/mL or ng/mL).

IFN-gamma = test: Example 9 Luminex, LPS hPBMCs: IFN-gamma; assay type: cell-based, human
Description: as §1, §2, §3

[1] = PBMC + LPS(5 ug/ml) + test article 0.001 uM, Mean
[2] = PBMC + LPS(5 ug/ml) + test article 0.001 uM, single replicates
[3] = PBMC + LPS(5 ug/ml) + test article 0.01 uM, Mean
[4] = PBMC + LPS(5 ug/ml) + test article 0.01 uM, single replicates
[5] = PBMC + LPS(5 ug/ml) + test article 0.1 uM, Mean
[6] = PBMC + LPS(5 ug/ml) + test article 0.1 uM, single replicates
[7] = PBMC + LPS(5 ug/ml) + test article 1 uM, Mean
[8] = PBMC + LPS(5 ug/ml) + test article 1 uM, single replicates
[9] = PBMC + LPS(5 ug/ml) + test article 10 uM, Mean
[10] = PBMC + LPS(5 ug/ml) + test article 10 uM, single replicates
[11] = PBMC + LPS(5 ug/ml) + test article 100 uM, Mean
[12] = PBMC + LPS(5 ug/ml) + test article 100 uM, single replicates
[13] = PBMC + test article 0.01 uM, no LPS, Mean
[14] = PBMC + test article 0.01 uM, no LPS, single replicates
[15] = PBMC + test article 0.1 uM, no LPS, Mean
[16] = PBMC + test article 0.1 uM, no LPS, single replicates
[17] = PBMC + test article 1 uM, no LPS, Mean
[18] = PBMC + test article 1 uM, no LPS, single replicates
[19] = PBMC + test article 10 uM, no LPS, Mean
[20] = PBMC + test article 10 uM, no LPS, single replicates
[21] = PBMC + test article 100 uM, no LPS, Mean
[22] = PBMC + test article 100 uM, no LPS, single replicates

With `CC(C)C[C@H](NC(=O)CNC(=O)[C@H](CC(=O)O)NC(=O)[C@H](CCC(N)=O)NC(=O)CNC(=O)[C@@H]1C[C@@H](O)CN1)C(=O)N[C@@H](C)C(=O)NCC(=O)N1CCC[C@H]1C(=O)N[C@@H](CCCCN)C(=O)O` [YY-101] (H-[Hyp]GQDGLAGPK-OH; N-terminus and C-terminus assumed) the TNF-alpha conc/live cell (TNF-alpha) was 14.8 pg/10^5 and 7.2 pg/10^5, the “Concentration (IFN-gamma)” value (IFN-gamma; [1]) was 2439.1 pg/mL and the “conc/live cell (IFN-gamma)” value (IFN-gamma; [1]) was 378.6 pg/10^5. For the same compound, the “Concentration (IFN-gamma)” value (IFN-gamma; [2]) was 2345.3 pg/mL and 2706.6 pg/mL and 2265.5 pg/mL, the “conc/live cell (IFN-gamma)” value (IFN-gamma; [2]) was 411.5 pg/10^5 and 381.2 pg/10^5 and 343.3 pg/10^5 and the “Concentration (IFN-gamma)” value (IFN-gamma; [3]) was 3133.1 pg/mL. For the same compound, the “conc/live cell (IFN-gamma)” value (IFN-gamma; [3]) was 507.8 pg/10^5, the “Concentration (IFN-gamma)” value (IFN-gamma; [4]) was 3435.7 pg/mL and 3322.0 pg/mL and 2641.6 pg/mL and the “conc/live cell (IFN-gamma)” value (IFN-gamma; [4]) was 536.8 pg/10^5 and 553.7 pg/10^5 and 433.0 pg/10^5. For the same compound, the “Concentration (IFN-gamma)” value (IFN-gamma; [5]) was 1841.4 pg/mL, the “conc/live cell (IFN-gamma)” value (IFN-gamma; [5]) was 313.6 pg/10^5 and the “Concentration (IFN-gamma)” value (IFN-gamma; [6]) was 2024.2 pg/mL and 1601.1 pg/mL and 1899.0 pg/mL. For the same compound, the “conc/live cell (IFN-gamma)” value (IFN-gamma; [6]) was 326.5 pg/10^5 and 307.9 pg/10^5 and 306.3 pg/10^5, the “Concentration (IFN-gamma)” value (IFN-gamma; [7]) was 2318.4 pg/mL and the “conc/live cell (IFN-gamma)” value (IFN-gamma; [7]) was 355.2 pg/10^5. The “Concentration (IFN-gamma)” value (IFN-gamma; [8]) was 2480.1 pg/mL and 2437.0 pg/mL and 2038.3 pg/mL, the “conc/live cell (IFN-gamma)” value (IFN-gamma; [8]) was 393.7 pg/10^5 and 343.2 pg/10^5 and 328.8 pg/10^5 and the “Concentration (IFN-gamma)” value (IFN-gamma; [9]) was 2654.7 pg/mL. For the same compound, the “conc/live cell (IFN-gamma)” value (IFN-gamma; [9]) was 406.4 pg/10^5, the “Concentration (IFN-gamma)” value (IFN-gamma; [10]) was 3058.1 pg/mL and 2593.6 pg/mL and 2312.4 pg/mL and the “conc/live cell (IFN-gamma)” value (IFN-gamma; [10]) was 509.7 pg/10^5 and 405.2 pg/10^5 and 304.3 pg/10^5. The “Concentration (IFN-gamma)” value (IFN-gamma; [11]) was 1939.0 pg/mL, the “conc/live cell (IFN-gamma)” value (IFN-gamma; [11]) was 333.7 pg/10^5 and the “Concentration (IFN-gamma)” value (IFN-gamma; [12]) was 1943.2 pg/mL and 2122.4 pg/mL and 1751.5 pg/mL. For the same compound, the “conc/live cell (IFN-gamma)” value (IFN-gamma; [12]) was 308.4 pg/10^5 and 342.3 pg/10^5 and 350.3 pg/10^5, the “Concentration (IFN-gamma)” value (IFN-gamma; [13]) was 20.8 pg/mL and the “conc/live cell (IFN-gamma)” value (IFN-gamma; [13]) was 4.2 pg/10^5. The “Concentration (IFN-gamma)” value (IFN-gamma; [14]) was 12.5 pg/mL and 29.1 pg/mL, the “conc/live cell (IFN-gamma)” value (IFN-gamma; [14]) was 2.4 pg/10^5 and 6.1 pg/10^5 and the “Concentration (IFN-gamma)” value (IFN-gamma; [15]) was 20.8 pg/mL. The “conc/live cell (IFN-gamma)” value (IFN-gamma; [15]) was 3.9 pg/10^5, the “Concentration (IFN-gamma)” value (IFN-gamma; [16]) was 12.5 pg/mL and 29.1 pg/mL and the “conc/live cell (IFN-gamma)” value (IFN-gamma; [16]) was 2.8 pg/10^5 and 5.0 pg/10^5. The “Concentration (IFN-gamma)” value (IFN-gamma; [17]) was 18.1 pg/mL, the “conc/live cell (IFN-gamma)” value (IFN-gamma; [17]) was 3.3 pg/10^5 and the “Concentration (IFN-gamma)” value (IFN-gamma; [18]) was 12.5 pg/mL and 23.7 pg/mL. For the same compound, the “conc/live cell (IFN-gamma)” value (IFN-gamma; [18]) was 2.3 pg/10^5 and 4.3 pg/10^5, the “Concentration (IFN-gamma)” value (IFN-gamma; [19]) was 50.9 pg/mL and the “conc/live cell (IFN-gamma)” value (IFN-gamma; [19]) was 8.1 pg/10^5. For the same compound, the “Concentration (IFN-gamma)” value (IFN-gamma; [20]) was 67.3 pg/mL and 34.4 pg/mL, the “conc/live cell (IFN-gamma)” value (IFN-gamma; [20]) was 10.5 pg/10^5 and 5.6 pg/10^5 and the “Concentration (IFN-gamma)” value (IFN-gamma; [21]) was 36.8 pg/mL. The “conc/live cell (IFN-gamma)” value (IFN-gamma; [21]) was 5.6 pg/10^5, the “Concentration (IFN-gamma)” value (IFN-gamma; [22]) was 49.9 pg/mL and 23.7 pg/mL and the “conc/live cell (IFN-gamma)” value (IFN-gamma; [22]) was 7.8 pg/10^5 and 3.4 pg/10^5.
